Source: US5955349A, “Compositions and methods for producing heterologous polypeptides in Pichia methanolica” (ZymoGenetics, Inc., priority 1996, dated 1999)

System: P. methanolica cells (strain CBS6515, UV-mutagenized)
Assay: Nystatin enrichment for auxotrophic mutants; titering of colony forming units versus control cells
Conditions: 1 mg nystatin added to remainder (about 450 ml) of 500 ml culture in minimal broth with 5 g/L ammonium sulfate, one additional hour with shaking, versus untreated control cells
Procedure: Large-scale mutagenesis was then carried out using a 2-second UV exposure to provide about 20% killing. Cells were plated at approximately 10^4 cells/plate onto eight YEPD plates that were supplemented with 100 mg/L each of uracil, adenine, and leucine, which were added to supplement the growth of potential auxotrophs having the cognate deficiencies. Following UV exposure the plates were wrapped in foil and incubated overnight at 30° C. The following day the colonies on the plates (~10^5 total) were resuspended in water and washed once with water. An amount of cell suspension sufficient to give an OD600 of 0.1-0.2 was used to inoculate 500 ml of minimal broth made with yeast nitrogen base without amino acids or ammonia, supplemented with 1% glucose and 400 μg/L biotin. The culture was placed in a 2.8 L baffled Bell flask and shaken vigorously overnight at 30° C. The following day the cells had reached an OD600 of ~1.0-2.0. The cells were pelleted and resuspended in 500 ml of minimal broth supplemented with 5 g/L ammonium sulfate. The cell suspension was placed in a 2.8 L baffled Bell flask and shaken vigorously at 30° C. for 6 hours. […] The cultures were incubated with shaking for an additional hour. The control and nystatin-treated cells were then harvested by centrifugation and washed with water three times. […]

SMILES: C[C@@H]1[C@H](O)[C@@H](C)/C=C/C=C/CC/C=C/C=C/C=C/C=C/C(O[C@H]2O[C@H](C)[C@@H](O)[C@H](N)[C@@H]2O)CC2O[C@](O)(CC(O)C(O)CCC(O)CC(O)CC(O)CC(=O)O[C@H]1C)CC(O)C2C(=O)O (stereo partly shown) [nystatin]
- decrease in the number of viable cells (colony forming units), factor: 10^4
